Earlier results, collected in patent US4968506A, “Pharmaceutical dosage with core of N-acetyl cystein” (Lejus Medical Aktienbolag, priority 1988, dated 1990).

System: mucous membrane in the stomach
Conditions: N-acetyl cysteine

## CC(=O)N[C@@H](CS)C(=O)O [N-Acetyl cysteine, N-acetyl cysteine]
  reported side effects: irritating effect on the mucous membrane in the stomach
